Data taken from US20170275270A1, “BENZYL SUBSTITUTED INDAZOLES” (Bayer Pharma Aktiengesellschaft, priority 2014, published 2017).
Where two headings read alike, the source gives them in different places.

What was measured:
[1] = tested on: HeLa human cervical tumor cells; test: Proliferation assay (HeLa+Paclitaxel); settings: read-out: Biological Assay 3: HeLa + Paclitaxel IC50, 3 nM paclitaxel, crystal violet;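 note: compounds at 0.001-10 µM added 4 h after paclitaxel, 92 h exposure, absorbance normalized to zero-point plate (0%) and untreated cells (100%), IC50 from 4-parameter fit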
Bub1 = Bub1 (Homo sapiens, UniProt O43683); test: Formation-Assay: phosphorylation status of histone 2A by inhibition of kinase activity of Bub1; type: cell-based; settings: Biological Assay 4.1: H2A Formation IC50, co-treatment with Nocodazole 1 μg/ml, 16 h
Bub1, sequence (O43683 whole entry): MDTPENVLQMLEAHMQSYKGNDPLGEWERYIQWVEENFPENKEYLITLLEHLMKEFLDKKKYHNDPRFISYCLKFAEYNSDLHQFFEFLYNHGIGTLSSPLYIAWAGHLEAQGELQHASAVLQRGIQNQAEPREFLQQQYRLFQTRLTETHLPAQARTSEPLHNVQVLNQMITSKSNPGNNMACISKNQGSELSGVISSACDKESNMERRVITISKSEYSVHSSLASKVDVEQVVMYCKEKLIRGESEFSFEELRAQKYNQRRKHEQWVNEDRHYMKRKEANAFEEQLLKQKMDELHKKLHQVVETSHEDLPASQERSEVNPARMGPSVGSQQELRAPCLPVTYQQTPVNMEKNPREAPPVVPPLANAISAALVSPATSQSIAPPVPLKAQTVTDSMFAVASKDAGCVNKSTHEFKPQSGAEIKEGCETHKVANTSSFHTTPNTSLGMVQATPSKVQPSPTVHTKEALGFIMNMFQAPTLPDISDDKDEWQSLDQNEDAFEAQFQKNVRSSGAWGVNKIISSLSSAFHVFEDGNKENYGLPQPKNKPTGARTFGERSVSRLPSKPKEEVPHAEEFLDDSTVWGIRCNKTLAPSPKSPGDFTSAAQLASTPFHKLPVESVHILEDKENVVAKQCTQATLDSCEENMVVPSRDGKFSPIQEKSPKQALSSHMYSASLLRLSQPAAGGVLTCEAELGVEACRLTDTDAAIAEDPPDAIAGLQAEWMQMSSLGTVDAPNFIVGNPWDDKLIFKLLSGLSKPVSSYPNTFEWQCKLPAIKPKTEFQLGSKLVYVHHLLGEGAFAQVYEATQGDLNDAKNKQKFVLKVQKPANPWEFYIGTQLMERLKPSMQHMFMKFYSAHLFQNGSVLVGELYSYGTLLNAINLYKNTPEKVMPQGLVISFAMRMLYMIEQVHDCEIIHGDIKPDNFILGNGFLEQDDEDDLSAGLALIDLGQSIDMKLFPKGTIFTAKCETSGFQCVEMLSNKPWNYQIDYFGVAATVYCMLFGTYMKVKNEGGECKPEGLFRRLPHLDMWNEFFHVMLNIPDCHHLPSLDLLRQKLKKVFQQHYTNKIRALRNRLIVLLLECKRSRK
Outline: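 Cells co-treated 16 h with Nocodazole (1 μg/ml) and compound (3 nM–10 μM), then fixed and immunostained for phospho-H2A, read by infrared imaging (800 nm) normalised to cell stain (700 nm). Nocodazole-only set as 100%, untreated cells as 0%.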

HeLa = test: Proliferation assay (HeLa cell line); settings: Homo sapiens, 96 h, read-out: Biological Assay 2: Proliferation assay (HeLa cell line) median IC50;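 note: crystal violet staining of cell number, scaled between a plate stained before dosing (0%) and cells left untreated (100%), compounds tested at 0.001-10 µM, IC50 via 4-parameter fit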
Protocol: Cultivated tumor cells (cells were ordered from ATCC, except HeLa-MaTu and HeLa-MaTu-ADR, which were ordered from EPO-GmbH, Berlin) were plated at a density of 1000 to 5000 cells/well, depending on the growth rate of the respective cell line, in a 96-well multititer plate in 200 μL of their respective growth medium supplemented 10% fetal calf serum. After 24 hours, the cells of one plate (zero-point plate) were stained with crystal violet (see below), while the medium of the other plates was replaced by fresh culture medium (200 μL), to which the test substances were added in various concentrations (0 μM, as well as in the range of 0.001-10 μM; the final concentration of the solvent dimethyl sulfoxide was 0.5%). The cells were incubated for 4 days in the presence of test substances. Cell proliferation was determined by staining the cells with crystal violet: the cells were fixed by adding 20 μL measuring point of an 11% glutaric aldehyde solution for 15 minutes at room temperature. After three washing cycles of the fixed cells with water, the plates were dried at room temperature. The cells were stained by adding 100 μL/measuring point of a 0.1% crystal violet solution (pH 3.0). After three washing cycles of the stained cells with water, the plates were dried at room temperature. The dye was dissolved by adding 100 μl/measuring point of a 10% acetic acid solution. […] The change of cell number, in percent, was calculated by normalization of the measured values to the absorbtion values of the zero-point plate (=0%) and the absorbtion of the untreated (0 μm) cells (=100%). The IC50 values were determined by means of a 4 parameter fit.

[2] = biological target: T1, catalytic domain of human Bub1 (amino acids 704-1085) (Homo sapiens, UniProt O43683); test: Bub1 kinase assay (TR-FRET); type: biochemical
T1 construct: catalytic domain of human Bub1 (amino acids 704-1085); His6 (N); made in house; host or cells: Hi5 insect cells
T1 sequence (O43683 704-1085): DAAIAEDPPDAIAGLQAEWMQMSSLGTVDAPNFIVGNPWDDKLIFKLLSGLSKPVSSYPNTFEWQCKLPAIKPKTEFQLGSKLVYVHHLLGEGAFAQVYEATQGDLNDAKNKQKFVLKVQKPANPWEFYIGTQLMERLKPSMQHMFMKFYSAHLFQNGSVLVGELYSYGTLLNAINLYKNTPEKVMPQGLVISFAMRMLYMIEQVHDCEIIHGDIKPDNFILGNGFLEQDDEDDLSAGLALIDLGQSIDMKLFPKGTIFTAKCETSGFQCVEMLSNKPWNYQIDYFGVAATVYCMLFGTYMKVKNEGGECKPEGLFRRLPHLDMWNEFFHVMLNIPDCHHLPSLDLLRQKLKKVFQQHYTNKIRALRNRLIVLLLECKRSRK
Outline: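 Compounds from 2 mM DMSO stocks, serially diluted 1:3.4, incubated with enzyme at 22° C for 60 min. Stopped with EDTA, then 1 h with streptavidin-XL665, anti-phosphoserine antibody and Eu-labelled anti-mouse IgG. Phosphorylated biotin-peptide read by TR-FRET; IC50 by 4-parameter logistic fit.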

[3] = Biological Assay 1: Bub1 kinase assay median IC50, 10 μM ATP

Compound	IC50 [1] [nM]	IC50 (Bub1) [nM]	IC50 (HeLa) [nM]	IC50 [2, 3] [nM]	IC50 ([2]; 10 μM ATP, read-out: Biological Assay 1: Bub1 kinase assay median IC50) [nM]
CCOc1cc(F)c(Cn2nc(-c3ncc(C4CCN(CC(F)(F)F)CC4)c(Nc4cc(C)ncc4C)n3)c3ccccc32)c(F)c1 [Example 2-20-6, N-(2,5-dimethylpyridin-4-yl)-2-[1-(4-ethoxy-2,6-difluorobenzyl)-1H-indazol-3-yl]-5-[1-(2,2,2-trifluoroethyl)piperidin-4-yl]pyrimidin-4-amine]	130	81	3200	260	
CCOc1cc(F)c(Cn2nc(-c3ncc(CCNCC(F)(F)F)c(Nc4ccncc4Cl)n3)c3ccccc32)c(F)c1 [Example 2-20-14, N-(3-chloropyridin-4-yl)-2-[1-(4-ethoxy-2,6-difluorobenzyl)-1H-indazol-3-yl]-5-{2-[(2,2,2-trifluoroethyl)amino]ethyl}pyrimidin-4-amine]	120	2.6	> 10000	48	
CCOc1cc(F)c(Cn2nc(-c3ncc(OCCO)c(Nc4ccncc4)n3)c3ccccc32)c(F)c1 [Example 3-1-1, 2-({2-[1-(4-ethoxy-2,6-difluorobenzyl)-1H-indazol-3-yl]-4-(pyridin-4-ylamino)pyrimidin-5-yl}oxy)ethanol, reference compound]	1400	1100	1500	11	

Further molecules by falling IC50 [1], results first:

IC50 [1] [nM]	IC50 (Bub1) [nM]	IC50 (HeLa) [nM]	IC50 [2, 3] [nM]	IC50 ([2]; 10 μM ATP, read-out: Biological Assay 1: Bub1 kinase assay median IC50) [nM]	Compound
1100	500	4100	5.9		CCOc1cc(F)c(Cn2nc(-c3ncc(OCCS(C)(=O)=O)c(Nc4ccncc4)n3)c3ccccc32)c(F)c1 [Example 3-3-1, 2-[1-(4-ethoxy-2,6-difluorobenzyl)-1H-indazol-3-yl]-5-[2-(methylsulfonyl)ethoxy]-N-(pyridin-4-yl)pyrimidin-4-amine, reference compound]
140	72	3600	35		CCOc1cc(F)c(Cn2nc(-c3ncc(C4CCN(CCC(F)(F)F)CC4)c(Nc4ccncc4OC)n3)c3ccccc32)c(F)c1 [Example 2-22-1, 2-[1-(4-ethoxy-2,6-difluorobenzyl)-1H-indazol-3-yl]-N-(3-methoxypyridin-4-yl)-5-[1-(3,3,3-trifluoropropyl)piperidin-4-yl]pyrimidin-4-amine]
98	1900	6000		25	CCOc1cc(F)c(Cn2nc(-c3nc4c(c(Nc5cc(C)ncn5)n3)CCC4)c3ccccc32)c(F)c1 [Example 2-21-1, 2-[1-(4-ethoxy-2,6-difluorobenzyl)-1H-indazol-3-yl]-N-(6-methylpyrimidin-4-yl)-6,7-dihydro-5H-cyclopenta[d]pyrimidin-4-amine]
